pEC50: −log10 of the molar value.
What was measured:
Type in all cases: binding
[1] = molecular target: TEAD1 YAP50-100 (Homo sapiens, UniProt P28347); test: TEAD1-YAP HTRF (TR-FRET) protein-protein interaction assay; details: TEAD1, YAP peptide 50-100, HTRF; for pEC50: read-out: TEAD1 YAP50-100 HTRF combined: EC50
Procedure, shortened: (§1)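 Compounds were first allowed 30 min to bind Eu-antibody-tagged His-TEAD (YAP-binding domain, aa 217-447). Biotinylated YAP 50-100 or TAZ 13-57 peptide complexed with streptavidin-XL665 was then added for 60 min at room temperature, and loss of TR-FRET signal gave IC50 or EC50 values.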

[2] = molecular target: TEAD2 YAP50-100 (Homo sapiens, UniProt Q15562); test: TEAD2-YAP HTRF (TR-FRET) protein-protein interaction assay; details: TEAD2, YAP peptide 50-100, HTRF; for pEC50: read-out: TEAD2 YAP50-100 HTRF combined: EC50
Procedure, shortened: as §1

[3] = molecular target: TEAD3 YAP50-100 (Homo sapiens, UniProt Q99594); test: TEAD3-YAP HTRF (TR-FRET) protein-protein interaction assay; details: TEAD3, YAP peptide 50-100, HTRF; for pEC50: read-out: TEAD3 YAP50-100 HTRF combined: EC50
Procedure, shortened: as §1

[4] = molecular target: TEAD4 YAP50-100 (Homo sapiens, UniProt Q15561); test: TEAD4-YAP HTRF (TR-FRET) protein-protein interaction assay; details: TEAD4, YAP peptide 50-100, HTRF; for pEC50: read-out: TEAD4 YAP50-100 HTRF combined: EC50
Procedure, shortened: as §1

[5] = molecular target: TEAD1 TAZ (amino acids 13-57) (Homo sapiens, UniProt P28347); test: TEAD1-TAZ HTRF (TR-FRET) protein-protein interaction assay; details: for TEAD1 TAZ HTRF combined: Max % Inhibition: TEAD1, TAZ peptide; for pEC50: TEAD1-TAZ HTRF, TR-FRET 665 nm/615 nm, read-out: TEAD1 TAZ HTRF combined: EC50
Procedure, shortened: as §1

[6] = molecular target: TEAD2 TAZ (amino acids 13-57) (Homo sapiens, UniProt Q15562); test: TEAD2-TAZ HTRF (TR-FRET) protein-protein interaction assay; details: for TEAD2 TAZ HTRF combined: Max % Inhibition: TEAD2, TAZ peptide; for pEC50: TEAD2-TAZ HTRF, TR-FRET 665 nm/615 nm, read-out: TEAD2 TAZ HTRF combined: EC50
Procedure, shortened: as §1

[7] = molecular target: TEAD3 TAZ (amino acids 13-57) (Homo sapiens, UniProt Q99594); test: TEAD3-TAZ HTRF (TR-FRET) protein-protein interaction assay; details: for TEAD3 TAZ HTRF combined: Max % Inhibition: TEAD3, TAZ peptide; for pEC50: TEAD3-TAZ HTRF, TR-FRET 665 nm/615 nm, read-out: TEAD3 TAZ HTRF combined: EC50
Procedure, shortened: as §1

[8] = molecular target: TEAD4 TAZ (amino acids 13-57) (Homo sapiens, UniProt Q15561); test: TEAD4-TAZ HTRF (TR-FRET) protein-protein interaction assay; details: for TEAD4 TAZ HTRF combined: Max % Inhibition: TEAD4, TAZ peptide; for pEC50: TEAD4-TAZ HTRF, TR-FRET 665 nm/615 nm, read-out: TEAD4 TAZ HTRF combined: EC50
Procedure, shortened: as §1

TEAD4 TAZ (amino acids 13-57), sequence (Q15561 217-434 limits assumed): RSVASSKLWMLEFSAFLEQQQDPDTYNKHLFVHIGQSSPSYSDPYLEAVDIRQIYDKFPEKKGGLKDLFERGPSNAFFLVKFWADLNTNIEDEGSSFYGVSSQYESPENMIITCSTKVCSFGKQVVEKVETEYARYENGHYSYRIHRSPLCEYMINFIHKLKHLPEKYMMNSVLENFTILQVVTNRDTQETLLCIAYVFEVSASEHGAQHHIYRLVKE
TEAD4 YAP50-100, sequence (Q15561 217-434 limits assumed): as above
TEAD1 TAZ (amino acids 13-57), sequence (P28347 167-426 limits assumed): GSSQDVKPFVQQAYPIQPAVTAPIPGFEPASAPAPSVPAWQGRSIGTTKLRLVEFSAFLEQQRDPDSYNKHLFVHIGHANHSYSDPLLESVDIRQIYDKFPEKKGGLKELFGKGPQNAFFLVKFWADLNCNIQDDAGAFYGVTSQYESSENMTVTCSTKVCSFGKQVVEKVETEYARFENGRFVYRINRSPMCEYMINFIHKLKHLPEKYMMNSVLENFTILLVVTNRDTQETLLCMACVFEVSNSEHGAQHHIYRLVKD
TEAD1 YAP50-100, sequence (P28347 167-426 limits assumed): as above
TEAD2 TAZ (amino acids 13-57), sequence (Q15562 217-447): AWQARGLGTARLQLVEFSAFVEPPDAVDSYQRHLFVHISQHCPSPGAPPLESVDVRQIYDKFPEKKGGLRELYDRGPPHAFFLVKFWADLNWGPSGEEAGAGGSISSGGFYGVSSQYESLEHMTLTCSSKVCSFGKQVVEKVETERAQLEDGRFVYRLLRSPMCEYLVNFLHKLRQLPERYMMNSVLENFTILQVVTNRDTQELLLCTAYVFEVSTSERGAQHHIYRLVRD
TEAD2 YAP50-100, sequence (Q15562 217-447): as above
TEAD3 TAZ (amino acids 13-57), sequence (Q99594 173-435 limits assumed): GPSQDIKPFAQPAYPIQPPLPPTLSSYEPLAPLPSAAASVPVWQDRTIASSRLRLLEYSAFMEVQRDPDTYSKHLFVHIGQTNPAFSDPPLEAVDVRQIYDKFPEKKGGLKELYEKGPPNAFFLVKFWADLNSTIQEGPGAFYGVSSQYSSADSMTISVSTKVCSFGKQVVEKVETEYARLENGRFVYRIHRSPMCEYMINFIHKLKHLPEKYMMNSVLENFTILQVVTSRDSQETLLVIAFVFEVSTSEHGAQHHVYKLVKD
TEAD3 YAP50-100, sequence (Q99594 173-435 limits assumed): as above

Row | Structure (SMILES) | TEAD1 YAP50-100 HTRF combined: Max % Inhibition [1] [%] | pEC50 [1] | TEAD2 YAP50-100 HTRF combined: Max % Inhibition [2] [%] | pEC50 [2] | TEAD3 YAP50-100 HTRF combined: Max % Inhibition [3] [%] | pEC50 [3] | TEAD4 YAP50-100 HTRF combined: Max % Inhibition [4] [%] | pEC50 [4] | TEAD1 TAZ HTRF combined: Max % Inhibition [5] [%] | pEC50 [5] | TEAD2 TAZ HTRF combined: Max % Inhibition [6] [%] | pEC50 [6] | TEAD3 TAZ HTRF combined: Max % Inhibition [7] [%] | pEC50 [7] | TEAD4 TAZ HTRF combined: Max % Inhibition [8] [%] | pEC50 [8]
1 | CN(C)C(=O)c1nn2c(=O)cc(-c3ccc(C4CCCCC4)c(F)c3)[nH]c2c1C(=O)N1CC(CF)C1 [Compound 4, 5-(4-Cyclohexyl-3-fluorophenyl)-3-(3-(fluoromethyl)azetidine-1-carbonyl)-N,N-dimethyl-7-oxo-4,7-dihydropyrazolo[1,5-a]pyrimidine-2-carboxamide] | 69.0 | 7.40 | 64.0 | 8.00 | 69.0 | 7.15 | 48.5 | 6.70 | 59.0 | 7.30 | 64.5 | 8.00 | 59.0 | 7.10 | 36.0 | 6.82
2 | C[C@H]1[C@@H](CF)CN1C(=O)c1c(C(=O)N(C)C)nn2c(=O)cc(-c3ccc(C4CCCCC4)cc3)[nH]c12 [Compound 5, 5-(4-Cyclohexylphenyl)-3-((2S,3S)-3-(fluoromethyl)-2-methylazetidine-1-carbonyl)-N,N-dimethyl-7-oxo-4,7-dihydropyrazolo[1,5-a]pyrimidine-2-carboxamide] | 73.0 | 7.10 | 83.0 | 8.00 | 75.5 | 6.89 | 56.0 | 6.60 | 62.0 | 7.15 | 78.5 | 8.00 | 66.5 | 6.85 | 41.0 | 6.77
3 | C[C@@H]1[C@H](CF)CN1C(=O)c1c(C(=O)N(C)C)nn2c(=O)cc(-c3ccc(C4CCCCC4)cc3)[nH]c12 [Compound 6, 5-(4-Cyclohexylphenyl)-3-((2R,3R)-3-(fluoromethyl)-2-methylazetidine-1-carbonyl)-N,N-dimethyl-7-oxo-4,7-dihydropyrazolo[1,5-a]pyrimidine-2-carboxamide] | 73.0 | 6.39 | 69.5 | 6.15 | 71.5 | 5.31 | 17.0 | 4.71 | 70.5 | 6.28 | 67.5 | 6.15 | 64.5 | 5.22 | 14.0 | 4.45
4 | O=C(c1c(-c2nccnc2C(F)(F)F)nn2c(=O)cc(-c3ccc(C4CCCCC4)cc3)[nH]c12)N1CC(CF)C1 [Compound 7, 5-(4-Cyclohexylphenyl)-3-(3-(fluoromethyl)azetidine-1-carbonyl)-2-(3-(trifluoromethyl)pyrazin-2-yl)pyrazolo[1,5-a]pyrimidin-7(4H)-one] | 78.0 | 6.70 | 61.0 | 7.40 | 71.0 | 6.46 | 54.0 | 6.59 | 74.0 | 6.70 | 67.0 | 7.52 | 61.0 | 6.49 | 50.0 | 6.80

Reference: patent publication US12692269B2, “Therapeutic compounds” (Genentech, Inc., priority 2019, dated 2026)
